Reference: article PMC11809415 (The Journal of Cell Biology, 2025)

How the values were obtained:
[1] = test system: actin filaments; conditions: ref Belyy et al., 2020, Kumari et al.; cited from earlier work
From the text: (§1) To minimize steric clashes of large probes, small fluorophore-labeled peptides have been developed. The most commonly used is Lifeact, a 17-amino acid peptide derived from the N-terminus of the Saccharomyces cerevisiae actin-binding protein 140 (Abp140).

[2] = test system: actin-dependent morphogenesis; conditions: certain experimental systems: yeast, Drosophila, C. elegans, zebrafish, mammalian cells; ref Courtemanche et al., 2016; Spracklen et al., 2014; Ono, 2024; Xu and Du, 2021; Flores et al., 2019; cited from earlier work
From the text: as §1

[3] = test system: actin (ADP-ribosylation by TcART, Photorhabdus luminescens); test: ADP-ribosylation of actin by TcART in presence of actin-binding peptides; type: biochemical, rabbit skeletal muscle α-actin; conditions: for ADP-ribosylation level: relative to no peptide = 1, […] actin, 314 pM TcART, 10 min 37°C
Description: (§2) Rabbit skeletal muscle α-actin was purified from muscle acetone powder (Pel-Freez Biologicals) as described in [Merino et al. (2018)] and stored in 50 μl aliquots at −70°C.
TcART, the ADP-ribosyltransferase from P. luminescens Tc toxin, was purified from E. coli BL21-CodonPlus(DE3)-RIPL harboring the plasmid pB656 as described previously ([Belyy et al., 2022]).
A total of 8-μl mixtures of 2 μg (4.8 μM final concentration) actin and actin-binding peptides at specified concentrations were preincubated for 5 min at room temperature in the buffer containing 1 mM NAD, 20 mM Tris pH 8, 150 mM NaCl, and 1 mM MgCl2. The ADP ribosylation reaction was initiated by the addition of 0.2 ng (314 pM) of TcART to the mixture. After 10 min of incubation at 37°C, the reaction was stopped by adding Laemmli sample buffer and heating the sample at 95°C for 5 min. The components of the mixture were separated by SDS-PAGE, blotted onto a polyvinylidene difluoride (PVDF) membrane using a Trans-Blot Turbo Transfer System (Bio-Rad), and visualized using a combination of the His-tagged ADP-ribose binding protein at the concentration of 0.01 mg/ml and HisProbe-HRP conjugate. The level of actin ADP-ribosylation was quantified by densitometry using ImageJ.

[4] = test system: F-actin; test: Actin bundling assay using low-speed centrifugation (10,000 g); type: biochemical, rabbit skeletal muscle α-actin; conditions: for F-actin in the pellet: 10 μM actin filaments, 5 min RT, 10,000 g
Description: as §2
8 μl of actin filaments at 10 μM were mixed with peptides at the specified concentration, incubated for 5 min at room temperature, and spun down at 10,000 g for 10 min at 4°C. Aliquots of the supernatant and resuspended pellet fractions were separated on SDS-polyacrylamide gels with 2,2,2-trichloroethanol ([Ladner-Keay et al., 2018]) and visualized with ultraviolet light.

[5] = test system: cells; conditions: ref Vosatka et al., 2022; cited from earlier work
From the text: (§3) However, in Xenopus XTC cells, expr ...

[6] = test system: Drosophila; conditions: ref Spracklen et al., 2014; cited from earlier work
From the text: as §3

[7] = test system: primary neurons; conditions: ref Patel et al., 2017; cited from earlier work
From the text: as §3

[8] = test system: Xenopus XTC cells; conditions: ref Belin et al., 2014; cited from earlier work
From the text: as §3

[9] = test system: F-actin; test: Cryo-EM of peptide mixed with F-actin; type: binding, rabbit skeletal muscle α-actin
Description: as §2
Actin filaments were prepared as for cosedimentation assays. Shortly before plunging, F-actin was diluted to 6 µM with F-buffer. […] 3 μl of sample was applied onto a freshly glow-discharged copper R2/1 300 mesh grid (Quantifoil), blotted for 8 s on both sides with blotting force −15, and plunge-frozen in liquid ethane using the Vitrobot Mark IV system (Thermo Fisher Scientific) at 13°C and 100% humidity.
The datasets were collected using a Talos Arctica transmission electron microscope (Thermo Fisher Scientific) equipped with an XFEG at 200 kV using the automated data-collection software EPU version 2.7 (Thermo Fisher Scientific). Two images per hole with a defocus range of −0.5 to −2.5 µm were collected with a K3 detector (Gatan) operated in super-resolution mode. […] After motion correction was performed in Relion (RRID:SCR_016274) version 3.1, the micrographs were imported into Cryosparc for patch CTF estimation. […]
Before deposition, the structures were refined in real space in Phenix (RRID:SCR_014224) ([Liebschner et al., 2019]) with secondary structure and reference model restraints. The statistics presented in Table 1 were calculated by MolProbity (RRID:SCR_014226) ([Williams et al., 2018]).

## Lifeact: 17-amino acid peptide derived from the N-terminus of Saccharomyces cerevisiae actin-binding protein 140 (Abp140) [reference compound]
[1]
  competition for binding site on actin filaments: competes with cofilin, myosin, and other actin-binding factors for the same binding site on actin filaments
[2]
  effect on actin-dependent morphogenesis: dramatically altered actin-dependent morphogenesis
[3]; peptide 1 µM, Repeat 1
  ADP-ribosylation level: 0,978733
[3]; peptide 1 µM, Repeat 2
  ADP-ribosylation level: 0,811616
[3]; peptide 1 µM, Repeat 3
  ADP-ribosylation level: 1,268379
[3]; peptide 3 µM, Repeat 1
  ADP-ribosylation level: 0,825802
[3]; peptide 3 µM, Repeat 2
  ADP-ribosylation level: 0,671345
[3]; peptide 3 µM, Repeat 3
  ADP-ribosylation level: 1,323177
[3]; peptide 10 µM, Repeat 1
  ADP-ribosylation level: 0,671724
[3]; peptide 10 µM, Repeat 2
  ADP-ribosylation level: 1,132312
[3]; peptide 10 µM, Repeat 3
  ADP-ribosylation level: 0,970817
[3]; peptide 30 µM, Repeat 1
  ADP-ribosylation level: 0,313245
[3]; peptide 30 µM, Repeat 2
  ADP-ribosylation level: 0,438167
[3]; peptide 30 µM, Repeat 3
  ADP-ribosylation level: 0,331448
[3]; peptide 100 µM, Repeat 1
  ADP-ribosylation level: 0
[3]; peptide 100 µM, Repeat 2
  ADP-ribosylation level: 0,032044
[3]; peptide 100 µM, Repeat 3
  ADP-ribosylation level: 0,093063
[3]; peptides up to 100 µM
  effect on TcART modification of F-actin (in words): inhibited TcART activity in a similar dose-dependent manner
[4]; peptide 10 µM, Repeat 1
  F-actin in the pellet: 0,07218
[4]; peptide 10 µM, Repeat 2
  F-actin in the pellet: 0,09382
[4]; peptide 10 µM, Repeat 3
  F-actin in the pellet: 0,137443
[4]; peptide 100 µM, Repeat 1
  F-actin in the pellet: 0,1046
[4]; peptide 100 µM, Repeat 2
  F-actin in the pellet: 0,117135
[4]; peptide 100 µM, Repeat 3
  F-actin in the pellet: 0,14654
[4]; peptide 1000 µM, Repeat 1
  F-actin in the pellet: 0,339777
[4]; peptide 1000 µM, Repeat 2
  F-actin in the pellet: 0,164721
[4]; peptide 1000 µM, Repeat 3
  F-actin in the pellet: 0,309232

## MARPRGAGPCSPGLERAPRRSVGELRLLFEARCAAVAAAAAAG [F-tractin, 43 amino acid peptide, residues 10–52 of rat inositol 1,4,5-trisphosphate 3-kinase A; EGFP fusion in cell assays]
[5]
  cell stiffness and cell migration: increase in cell stiffness and reduction in cell migration
[6]
  effect on fertility and actin in Drosophila oogenesis: without causing female sterility or significant actin defects
[7]
  reporting on F-actin organization in primary neurons: without notable effects on cell function
[8]
  effect of expression on actin structures: induced radial actin bundles and longer filopodia
[9]; estimated from alignment-free 3D classification, 100 μM peptide
  F-tractin occupancy on F-actin: ~ 50%
[9]; preformed F-actin incubated with 100 μM peptide
  appearance of actin filaments by cryo-EM: large heterogeneous bundles instead of single actin filaments
[4]; in vitro, up to 100 µM, low-speed centrifugation and cryo-EM
  actin bundling (in words): strong bundling effect on F-actin
[4]; peptide 1 µM, Repeat 1
  F-actin in the pellet: 0,052087
[4]; peptide 1 µM, Repeat 2
  F-actin in the pellet: 0,032888
[4]; peptide 1 µM, Repeat 3
  F-actin in the pellet: 0,047528
[4]; peptide 10 µM, Repeat 1
  F-actin in the pellet: 0,092603
[4]; peptide 10 µM, Repeat 2
  F-actin in the pellet: 0,600815
[4]; peptide 10 µM, Repeat 3
  F-actin in the pellet: 0,323365
[4]; peptide 100 µM, Repeat 1
  F-actin in the pellet: 0,999376
[4]; peptide 100 µM, Repeat 2
  F-actin in the pellet: 0,989657
[4]; peptide 100 µM, Repeat 3
  F-actin in the pellet: 0,931572
